Series [1] in a line: DRUGMATRIX: Calcium Channel Type L, Benzothiazepine radioligand binding (ligand: [3H] Diltiazem). The series is classed as cell membranes, Rattus norvegicus, Wistar, Brain, Membrane. As to conditions: Not Active = under 50% inhibition at 10 µM.
In the next series the target is T1, Adenosine receptor A3 (Homo sapiens, UniProt P0DMS8).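 Also: radioligand binding assay with AB-MECA serving as the labeled ligand; in other assays of this panel Not Active means under 50% inhibition at 10 µM.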
T1 sequence (P0DMS8 whole entry): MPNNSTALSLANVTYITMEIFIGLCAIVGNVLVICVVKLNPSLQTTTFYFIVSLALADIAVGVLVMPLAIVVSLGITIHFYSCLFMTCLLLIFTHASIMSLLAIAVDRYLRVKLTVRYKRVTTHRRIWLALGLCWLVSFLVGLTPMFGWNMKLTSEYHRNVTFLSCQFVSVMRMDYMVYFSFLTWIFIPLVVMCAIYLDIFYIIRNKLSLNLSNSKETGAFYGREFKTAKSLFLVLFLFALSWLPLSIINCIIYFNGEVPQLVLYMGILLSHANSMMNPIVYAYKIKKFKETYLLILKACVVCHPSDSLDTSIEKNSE
The series is classed as cell membranes, CHO-K1, Membrane. The following applies: for IC50: cho-k1.

The target of series [2] is 5-hydroxytryptamine receptor 2B (Homo sapiens, UniProt P41595). The series is classed as cell membranes, CHO-K1, Membrane. As to conditions: cho-k1. Also: in other assays of this panel Not Active means under 50% inhibition at 10 µM.
A short description of series [3]: DRUGMATRIX: Calcium Channel Type L, Dihydropyridine radioligand binding (ligand: [3H] Nitrendipine). Type of series: cell membranes, Rattus norvegicus, Wistar, Cerebral cortex, Membrane. As to conditions: Not Active = under 50% inhibition at 10 µM.
The next series addresses Cytochrome P450 3A4 (Homo sapiens, UniProt P08684). The following applies: bti-tn-5b1-4.
The target in series [4] is T2, Vasoactive intestinal polypeptide receptor 1 (Homo sapiens, UniProt P32241). Also: in other assays of this panel Not Active means under 50% inhibition at 10 µM.
T2 sequence (P32241 whole entry): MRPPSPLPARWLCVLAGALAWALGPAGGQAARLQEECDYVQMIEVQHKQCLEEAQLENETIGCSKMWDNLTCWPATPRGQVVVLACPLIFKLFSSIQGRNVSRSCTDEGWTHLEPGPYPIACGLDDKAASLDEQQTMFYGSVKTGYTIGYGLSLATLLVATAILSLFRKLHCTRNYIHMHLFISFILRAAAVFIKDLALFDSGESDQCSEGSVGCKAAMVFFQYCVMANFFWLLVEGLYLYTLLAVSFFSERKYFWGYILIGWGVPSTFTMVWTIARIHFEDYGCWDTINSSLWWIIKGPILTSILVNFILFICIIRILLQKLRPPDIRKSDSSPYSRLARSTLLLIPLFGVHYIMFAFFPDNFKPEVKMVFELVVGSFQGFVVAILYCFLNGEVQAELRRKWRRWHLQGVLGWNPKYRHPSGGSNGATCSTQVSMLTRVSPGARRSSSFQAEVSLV
Type of series: cell membranes, Membrane. The following applies: ht-29.

pIC50, pKi: −log10 of the molar value.

As usually defined, the pIC50 is −log10 of the IC50, conventionally taken in molar units. One may read the pKi as the negative decadic logarithm of the Ki, by convention in mol/L.

Sequence of 5-hydroxytryptamine receptor 2B (P41595 whole entry): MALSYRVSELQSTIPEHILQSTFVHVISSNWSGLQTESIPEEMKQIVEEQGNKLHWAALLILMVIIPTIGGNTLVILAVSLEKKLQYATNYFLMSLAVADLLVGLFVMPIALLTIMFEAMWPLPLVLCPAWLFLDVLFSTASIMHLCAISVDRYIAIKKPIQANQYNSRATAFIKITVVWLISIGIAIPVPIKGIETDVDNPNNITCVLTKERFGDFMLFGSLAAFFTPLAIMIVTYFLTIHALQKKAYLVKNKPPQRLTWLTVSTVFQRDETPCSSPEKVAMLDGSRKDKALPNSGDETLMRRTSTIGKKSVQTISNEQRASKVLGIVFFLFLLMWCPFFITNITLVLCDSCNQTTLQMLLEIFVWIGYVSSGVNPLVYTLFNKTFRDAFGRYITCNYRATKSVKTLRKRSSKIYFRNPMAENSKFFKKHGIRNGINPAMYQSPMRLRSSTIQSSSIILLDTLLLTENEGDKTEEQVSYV
Sequence of Cytochrome P450 3A4 (P08684 whole entry): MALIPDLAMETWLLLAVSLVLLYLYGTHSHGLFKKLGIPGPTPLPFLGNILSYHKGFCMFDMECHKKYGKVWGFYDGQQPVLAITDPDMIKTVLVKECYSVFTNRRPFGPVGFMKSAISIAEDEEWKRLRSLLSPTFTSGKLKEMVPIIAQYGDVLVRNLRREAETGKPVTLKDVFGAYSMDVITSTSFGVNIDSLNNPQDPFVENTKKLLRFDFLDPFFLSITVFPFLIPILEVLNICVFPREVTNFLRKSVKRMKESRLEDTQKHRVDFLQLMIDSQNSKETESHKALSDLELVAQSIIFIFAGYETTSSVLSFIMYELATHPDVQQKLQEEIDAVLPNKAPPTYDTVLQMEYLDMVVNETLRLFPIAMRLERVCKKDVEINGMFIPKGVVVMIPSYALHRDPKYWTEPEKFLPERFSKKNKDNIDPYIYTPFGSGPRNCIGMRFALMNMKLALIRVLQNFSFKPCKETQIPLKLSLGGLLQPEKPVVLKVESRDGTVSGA

With `CN(C)C(=O)Oc1cc(OC(=O)N(C)C)cc(C(O)CNC(C)(C)C)c1` (configuration not stated) [BAMBUTEROL], the IC50 entry (in series [1]; at Adenosine receptor A3; in series [2]; in series [3]; against Cytochrome P450 3A4; in series [4]) was “Not Active” each time. The Ki entry (in series [1]; in series [3]; at Cytochrome P450 3A4) was “Not Active” in each case.

Take `C[C@H]1c2cccc(O)c2C(=O)C2=C(O)[C@]3(O)C(=O)C(C(N)=O)=C(O)[C@@H](N(C)C)[C@@H]3[C@@H](O)[C@@H]21.O` [DOXYCYCLINE]: the IC50 result (in series [1]; at Adenosine receptor A3; in series [2]; in series [3]; against Cytochrome P450 3A4; in series [4]) was “Not Active” throughout. Besides, the Ki result (in series [1]; in series [3]; at Cytochrome P450 3A4) was “Not Active” each time.

As to `C[C@H]1O[C@@H](O[C@H]2[C@@H](O)C[C@H](O[C@H]3[C@@H](O)C[C@H](O[C@H]4CC[C@@]5(C)[C@H](CC[C@@H]6[C@@H]5C[C@@H](O)[C@]5(C)[C@@H](C7=CC(=O)OC7)CC[C@]65O)C4)O[C@@H]3C)O[C@@H]2C)C[C@H](O)[C@@H]1O` [DIGOXIN], the IC50 entry (in series [1]; against Adenosine receptor A3; in series [2]; in series [3]; against Cytochrome P450 3A4; in series [4]) was “Not Active” throughout. Further, the Ki entry (in series [1]; in series [3]; at Cytochrome P450 3A4) was “Not Active” in each case.

In the case of `c1ccc2c(c1)c1cccc3ccc4cccc2c4c31` [BENZO[E]PYRENE], the IC50 result (in series [1]; against Adenosine receptor A3; in series [2]; in series [3]; at Cytochrome P450 3A4; in series [4]) was “Not Active” each time. In addition, the Ki entry (in series [1]; in series [3]; on Cytochrome P450 3A4) was “Not Active” in each case.

For the molecule `Sc1ncnc2nc[nH]c12` [MERCAPTOPURINE ANHYDROUS], the IC50 entry (in series [1]; at Adenosine receptor A3; in series [2]; in series [3]; against Cytochrome P450 3A4; in series [4]) was “Not Active” throughout. The Ki result (in series [1]; in series [3]; on Cytochrome P450 3A4) was “Not Active” each time.

With `O=c1oc2ccccc2c(O)c1Cc1c(O)c2ccccc2oc1=O` [DICUMAROL], the IC50 result (in series [1]; against Adenosine receptor A3; in series [2]; in series [3]; at Cytochrome P450 3A4; in series [4]) was “Not Active” each time. Further, the Ki result (in series [1]; in series [3]; at Cytochrome P450 3A4) was “Not Active” in each case.

With `Nc1nc(N)nc(-c2cc(Cl)ccc2Cl)n1.O=C(O)/C=C\C(=O)O` [IRSOGLADINE MALEATE], the IC50 entry (in series [1]; at Adenosine receptor A3; in series [2]; in series [3]; against Cytochrome P450 3A4; in series [4]) was “Not Active” in each case. Moreover, the Ki entry (in series [1]; in series [3]; on Cytochrome P450 3A4) was “Not Active” in each case.

Take `CC1(C)O[C@@H]2C[C@H]3[C@@H]4CCC5=CC(=O)CC[C@]5(C)[C@@]4(F)[C@@H](O)C[C@]3(C)[C@]2(C(=O)CCl)O1` [HALCINONIDE]: the IC50 entry (in series [1]; at Adenosine receptor A3; in series [2]; in series [3]; against Cytochrome P450 3A4; in series [4]) was “Not Active” throughout. Besides, the Ki entry (in series [1]; in series [3]; at Cytochrome P450 3A4) was “Not Active” each time.

Regarding `O=c1[nH]c(=O)n([C@H]2C[C@H](O)[C@@H](CO)O2)cc1I` [IDOXURIDINE], the IC50 entry (in series [1]; at Adenosine receptor A3; in series [2]; in series [3]; against Cytochrome P450 3A4; in series [4]) was “Not Active” throughout. Moreover, the Ki result (in series [1]; in series [3]; at Cytochrome P450 3A4) was “Not Active” throughout.

Consider `CC(C)C(=O)Nc1ccc([N+](=O)[O-])c(C(F)(F)F)c1` [FLUTAMIDE], for which the IC50 result (in series [1]; against Adenosine receptor A3; in series [2]; in series [3]; against Cytochrome P450 3A4; in series [4]) was “Not Active” throughout. Further, the Ki result (in series [1]; in series [3]; on Cytochrome P450 3A4) was “Not Active” throughout.

For `CCC1(c2ccc(N)cc2)CCC(=O)NC1=O` (configuration not stated) [AMINOGLUTETHIMIDE], the IC50 entry (in series [1]; against Adenosine receptor A3; in series [2]; in series [3]; against Cytochrome P450 3A4; in series [4]) was “Not Active” throughout. The Ki result (in series [1]; in series [3]; on Cytochrome P450 3A4) was “Not Active” throughout.

As to `Cc1ccc2cc3c(ccc4ccccc43)c3c2c1CC3` [3-METHYLCHOLANTHRENE], the IC50 result (in series [1]; in series [2]; in series [3]; against Cytochrome P450 3A4; in series [4]) was “Not Active” each time. The Ki result (in series [1]; in series [3]; at Cytochrome P450 3A4) was “Not Active” throughout. For the same molecule, the pIC50 at Adenosine receptor A3 (read-out: IC50) was 5.26. In addition, the pKi on Adenosine receptor A3 (read-out: Ki) is 5.50.

`O=C(O)CCCc1ccc(N(CCCl)CCCl)cc1` [CHLORAMBUCIL]: the IC50 result (in series [1]; against Adenosine receptor A3; in series [2]; in series [3]; against Cytochrome P450 3A4; in series [4]) was “Not Active” in each case. In addition, the Ki result (in series [1]; in series [3]; on Cytochrome P450 3A4) was “Not Active” throughout.

Take `CC(NC(C)(C)C)C(=O)c1cccc(Cl)c1` (configuration not stated) [BUPROPION]: the IC50 entry (in series [1]; against Adenosine receptor A3; in series [2]; in series [3]; against Cytochrome P450 3A4; in series [4]) was “Not Active” each time. Also, the Ki result (in series [1]; in series [3]; at Cytochrome P450 3A4) was “Not Active” throughout.

`C=C(C)C1(O)OC(=O)C=C1OC` (configuration not stated) [PENICILLIC ACID]: the IC50 entry (in series [1]; against Adenosine receptor A3; in series [2]; in series [3]; on Cytochrome P450 3A4; in series [4]) was “Not Active” in each case. Moreover, the Ki entry (in series [1]; in series [3]; at Cytochrome P450 3A4) was “Not Active” throughout.

For the molecule `CCCC1O[C@@H]2C[C@H]3[C@@H]4CCC5=CC(=O)C=C[C@]5(C)[C@H]4[C@@H](O)C[C@]3(C)[C@]2(C(=O)CO)O1` (some centres not stated) [BUDESONIDE], the IC50 result (in series [1]; at Adenosine receptor A3; in series [2]; in series [3]; at Cytochrome P450 3A4; in series [4]) was “Not Active” throughout. Also, the Ki entry (in series [1]; in series [3]; at Cytochrome P450 3A4) was “Not Active” throughout.

For `COCCc1ccc(OCC(O)CNC(C)C)cc1` (configuration not stated) [METOPROLOL], the IC50 result (in series [1]; on Adenosine receptor A3; in series [2]; in series [3]; at Cytochrome P450 3A4; in series [4]) was “Not Active” each time. The Ki result (in series [1]; in series [3]; on Cytochrome P450 3A4) was “Not Active” in each case.

Turning to `CC1CC(OC(=O)C(O)c2ccccc2)CC(C)(C)C1` (configuration not stated) [CYCLANDELATE], the IC50 entry (in series [1]; at Adenosine receptor A3; in series [2]; in series [3]; against Cytochrome P450 3A4; in series [4]) was “Not Active” each time. In addition, the Ki entry (in series [1]; in series [3]; at Cytochrome P450 3A4) was “Not Active” each time.

With `C1CCC(C(CC2CCCCN2)C2CCCCC2)CC1` (configuration not stated) [PERHEXILINE], in series [1] (read-out: IC50), the pIC50 was 5.98. The pKi in series [1] (read-out: Ki) was 6.03. The IC50 result (at Adenosine receptor A3; in series [2]; in series [3]; against Cytochrome P450 3A4; in series [4]) was “Not Active” each time. The Ki entry (in series [3]; on Cytochrome P450 3A4) was “Not Active” in each case.

(Values after ChEMBL document CHEMBL1909046, “DrugMatrix in vitro pharmacology data”.)
